Entries after “also recorded” stand apart in the source; their conditions may differ.
Experiments:
[1] = test system: subjects with fibromyalgia; assay: PROMIS Physical Function short form; type: in vivo, human
Source text: As used herein, the “PROMIS Physical Function short form” is Patient Reported Outcomes Measurement Information System Physical Function Short Form. The PROMIS physical function short form version 1.0 12a measures the self-reported performance of physical activities including dexterity, walking or mobility and the ability to complete activities of daily living. All 12 questions are based on a 5-point numerical rating scale/Likert scale ranging from 1 to 5 with different categorical responses. Higher scores represent a better quality of life. The PROMIS physical function is made of the 2 following subdomains: • Walking Subdomain Score • If the question, “Can you walk 25 feet on a level surface (with or without support)?” is answered yes, then 6 questions will be assessed. Otherwise, the Walking Subdomain Score will not be calculated. 4 Questions with Scores Ranging from 1 (Unable to do) to 5 (Without any difficulty): • Are you able to walk on flat ground? • Are you able to walk up and down two steps? • Are you able to run at a fast pace for 2 miles? • Are you able to do yard work like raking leaves, weeding, or pushing a lawn mower? 2 Questions with Scores Ranging from 1 (Cannot do) to 5 (Not at all): • Does your health now limit you in doing strenuous activities such as backpacking, skiing, playing tennis, bicycling, or jogging? • Does your health now limit you in hiking a couple of miles on uneven surfaces, including hills? • Sum of those 6 Questions make up the Walking Subdomain Score Ranging from 6 to 30 • Other Physical Function Subdomain Score 5 Questions with Scores Ranging from 1 (Unable to do) to 5 (Without any difficulty): • Are you able to wash and dry your body? • Are you able to get in and out of bed? • Are you able to bend down and pick up clothing from the floor? • Are you able to push open a heavy door? • Are you able to reach and get down an object (such as a can of soup) from above your head? 1 Question with Scores Ranging from 1 (Cannot do) to 5 (Not at all): • Does your health now limit you in doing eight hours of physical labor? • Sum of those 6 Questions make up the Other Physical Function Subdomain Score Ranging from 6 to 30
If at least 3 questions have been answered within an individual subdomain, that subdomain score may be imputed if missing responses are present. […] A total score for PROMIS physical function was not calculated. The PROMIS physical function assessment was collected and analyzed at visits Screening, Day 1, Week 2, Week 4, Week 6, and Follow-up (Week 7). […] Additionally, the treatment group comparisons were analyzed using the paired t-test and nonparametric Wilcoxon signed-rank test. All PROMIS physical function data collected and the calculated subdomain scores at each visit were presented in a subject listing.

[2] = test system: resting state functional connectivity; assay: rs-fcMRI seed-based region of interest functional connectivity; type: in vivo, human
Source text: Resting state functional connectivity magnetic resonance imaging (rs-fcMRI) also uses noninvasive techniques to map blood flow in the brain. In rs-fcMRI, neural connections between different areas of the brain are identified by mapping regions of synchronous blood flow fluctuations. Synchronous blood fluctuations are examined to determine the strength of neural connections between different brain regions.
Resting 6-minute scans, with subjects resting comfortably in the scanner with eyes open and fixated on a crosshair, were completed at the beginning of the scan session. Whole brain BOLD rs-fcMRI data were collected following same parameters used for evoked fMRI. Physiological data were also collected simultaneously with rs-fcMRI data, as cardiorespiratory fluctuations are known to influence rs-fcMRI intrinsic connectivity estimation within several brain networks
In order to quantify intrinsic brain connectivity, rs-fcMRI data were analyzed with both dual-regression ICA and seed-voxel approaches. These approaches are complementary, as they quantify intrinsic brain connectivity on a network level (dual regression probabilistic ICA) and a more specific region-focused level (seed-voxel).
Resting state functional connectivity MRI data were preprocessed and analyzed using statistical parametric mapping software package Version 12, the CONN functional connectivity toolbox, and the GIFT toolbar, all running on MATLAB Version 9.2 or later. Upon collection of rs-fcMRI data, physiological artifacts were first removed using a custom MATLAB algorithm and slice-time corrected using Functional Magnetic Resonance Imaging of the Brain Software Library software. Preprocessing steps included motion correction, realignment, registration, normalization to standard Montreal Neurological Institute template, and smoothing (full width at half maximum Gaussian kernel of 6 or 8 mm).
Seed to whole brain functional connectivity analysis was performed using the CONN toolbox, Version 15, running on […]. […] Spheres were created (5 mm radius) around peak voxel coordinates and white matter, CSF, and motion parameters were used as covariates of no interest. Seed-based analyses were also performed using regions of interest assessed with single voxel ^1H-MRS regions showing NYX-2925 effects on Glx level. Data were band pass filtered (0.01 to 0.1 Hz) to remove linear drifts and high frequency noise. First level analysis correlated the time course from the seed to all brain voxels, creating connectivity maps for each seed region. These connectivity maps were passed up to group-level analyses comparing differences in connectivity at the visits of interest in statistical parametric mapping.
Several analyses were conducted with the fMRI resting state and task data. Results were assessed by: 1) a primary analysis, where a finding was deemed significant with a corrected cluster level p<0.05, derived from an uncorrected voxel-wise p<0.001, and 2) an exploratory analysis, where a finding was deemed significant with an uncorrected voxel-wise p<0.005 and having a cluster greater than or equal to 80 contiguous voxels. Results that met significance in the primary analyses had connectivity values extracted and imported into SPSS v25 where paired t-tests were performed to assess for potential outliers contributing to the finding. Remaining data were then correlated with clinical measures using parametric bivariate Pearson correlations. Results were deemed significant at p<0.05.
Seed-based, region of interest, functional connectivity analyses were performed (n=18) for regions that were used to acquire ^1H-MRS data: dACC, perigenual anterior cingulate cortex (pgACC), right anterior insula cortex, right posterior insula cortex, precuneus, thalamus, and medial prefrontal cortex.

[3] = Week 2 (placebo) to Week 4 (NYX-2925 20 mg)
[4] = Week 2 (placebo) to Week 6 (NYX-2925 200 mg), not statistically significant
[5] = exploratory, placebo visit to NYX-2925 200 mg visit

CC(C)C(=O)N1CCC[C@]12CN([C@H](C(N)=O)[C@@H](C)O)C2=O [NYX-2925, (2S, 3R)-3-hydroxy-2-((R)-5-isobutyryl-1-oxo-2,5-diazaspiro[3.4]octan-2-yl)butanamide]
PROMIS Physical Function Other Physical Function Subdomain score, mean change [1, 3]: −0.1
PROMIS Physical Function Walking Subdomain score, mean change [1, 3]: 0.2
PROMIS Physical Function Other Physical Function Subdomain score, mean change [1, 4]: 0.4
PROMIS Physical Function Walking Subdomain score, mean change [1, 4]: 0.5
connectivity right anterior insula cortex seed - right ventral anterior thalamic nucleus ([2]; baseline visit to NYX-2925 200 mg visit, PFWE=0.018): decreased
connectivity right posterior insula cortex seed - dACC ([2]; exploratory analysis, placebo visit to NYX-2925 20 mg visit): decrease in connectivity
connectivity precuneus - right anterior insula and left dACC ([2]; exploratory, baseline visit to NYX-2925 20 mg visit): decreased
connectivity precuneus - right mid cingulate cortex ([2]; exploratory, placebo visit to NYX-2925 20 mg visit): Decreases in resting state functional connectivity
connectivity precuneus seed - right posterior/mid cingulate cortex [2, 5]: decreased
connectivity thalamus seed - right anterior prefrontal cortex and bilateral precuneus [2, 5]: decreases in connectivity
functional connectivity dACC seed - right posterior insula cortex ([2]; placebo to NYX-2925 20 mg, not meeting cluster level correction significance): decreased connectivity
functional connectivity pgACC seed - left precuneus/precentral gyrus ([2]; placebo visit to NYX-2925 20 mg visit, PFWE<0.00001): decreased
connectivity medial prefrontal cortex seed - right anterior prefrontal cortex and right mid cingulate cortex ([2]; placebo visit to NYX-2925 200 mg visit, PFWE=0.003 and 0.036): Decreases were also observed
functional connectivity pgACC seed - right inferior frontal gyrus ([2]; placebo visit to NYX-2925 200 mg visit, PFWE=0.008): decreased
connectivity of precuneus seed ([2]; primary analyses): no significant results
connectivity of right posterior insula cortex seed ([2]; primary analyses): no significant findings
connectivity thalamus seed - bilateral cuneus ([2]; primary analysis, baseline visit to NYX-2925 200 mg visit, PFWE<0.00001): significant decrease in resting state connectivity
functional connectivity of dACC seed to right superior temporal gyrus, left premotor/primary somatosensory cortex, right precuneus, left precentral gyrus/premotor cortex ([2]; primary analysis, placebo visit to NYX-2925 20 mg visit, PFWE 0.030-0.049): reduced connectivity; also recorded: decreased functional connectivity
connectivity medial prefrontal cortex seed - right anterior prefrontal/dorsolateral prefrontal cortex ([2]; primary, baseline visit to NYX-2925 200 mg visit, PFWE=0.001): Significant decreases in resting state connectivity
